This is an account of results in the supplement of paper PMC10307832.

The first test deals with NCI-H2087. Briefly: relative viability (nuclei count vs DMSO), 5 days (fraction); higher = more cells survive. To be noted: first compound 2 µM. The essentials: (§1)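 Dosing by pin tool came one day after lung cancer cell lines were seeded in 1536-well plates, using either one drug or a fixed anchor-drug dose plus five library-drug doses (not always all listed) in √10 steps. After 5 days, nuclei were counted on 4× images. Relative viability is treated-well nuclei count divided by vehicle-well nuclei count, and values are medians of duplicate plates.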
The compound `COCC1(CO)C(=O)C2CCN1CC2` (stereo not drawn) [PRIMA-1MET] + CC(=O)Nc1cccc(-n2c(=O)n(C3CC3)c(=O)c3c(Nc4ccc(I)cc4F)n(C)c(=O)c(C)c32)c1 [Trametinib] (partner 0.02 µM) had a relative viability of 0.19.
For the compound `COCC1(CO)C(=O)C2CCN1CC2` (stereo not drawn) [PRIMA-1MET] + Nc1ncn([C@H]2C[C@H](O)[C@@H](CO)O2)c(=O)n1 [Decitabine] (partner 2 µM), the relative viability was found to be 0.315.
With `COCC1(CO)C(=O)C2CCN1CC2` (stereo not drawn) [PRIMA-1MET] + O=C(c1cc(Cc2n[nH]c(=O)c3ccccc23)ccc1F)N1CCN(C(=O)C2CC2)CC1 [Olaparib] (partner 8 µM), the relative viability worked out at 0.749.

Staying with this test, now noted: first compound 6.325 µM.
Regarding `COCC1(CO)C(=O)C2CCN1CC2` (stereo not drawn) [PRIMA-1MET] + N=C(N)NC(=N)NCCc1ccccc1 [Phenformin] (partner 250 µM), the relative viability is 0.463.
The compound `COCC1(CO)C(=O)C2CCN1CC2` (stereo not drawn) [PRIMA-1MET] + Nc1nc2[nH]cc(CCc3ccc(C(=O)N[C@@H](CCC(=O)O)C(=O)O)cc3)c2c(=O)[nH]1 [Pemetrexed] (partner 0.2 µM) yielded a relative viability of 0.61.
`COCC1(CO)C(=O)C2CCN1CC2` (stereo not drawn) [PRIMA-1MET] + CC(=O)Nc1cccc(-n2c(=O)n(C3CC3)c(=O)c3c(Nc4ccc(I)cc4F)n(C)c(=O)c(C)c32)c1 [Trametinib] (partner 0.02 µM) registered a relative viability of 0.168.
The compound `COCC1(CO)C(=O)C2CCN1CC2` (stereo not drawn) [PRIMA-1MET] + Nc1ncn([C@H]2C[C@H](O)[C@@H](CO)O2)c(=O)n1 [Decitabine] (partner 2 µM) showed a relative viability of 0.251.
With `COCC1(CO)C(=O)C2CCN1CC2` (stereo not drawn) [PRIMA-1MET] + O=C(c1cc(Cc2n[nH]c(=O)c3ccccc23)ccc1F)N1CCN(C(=O)C2CC2)CC1 [Olaparib] (partner 8 µM), the relative viability stood at 0.649.

The test is the same for the next values; noted with them: first compound 20 µM.
Compound `COCC1(CO)C(=O)C2CCN1CC2` (stereo not drawn) [PRIMA-1MET] + N=C(N)NC(=N)NCCc1ccccc1 [Phenformin] (partner 250 µM) registered a relative viability of 0.168.
On the same count and under the same terms, under `COCC1(CO)C(=O)C2CCN1CC2` (stereo not drawn) [PRIMA-1MET] + Nc1nc2[nH]cc(CCc3ccc(C(=O)N[C@@H](CCC(=O)O)C(=O)O)cc3)c2c(=O)[nH]1 [Pemetrexed] (partner 0.2 µM) stands 0.563.
The compound `COCC1(CO)C(=O)C2CCN1CC2` (stereo not drawn) [PRIMA-1MET] + CC(=O)Nc1cccc(-n2c(=O)n(C3CC3)c(=O)c3c(Nc4ccc(I)cc4F)n(C)c(=O)c(C)c32)c1 [Trametinib] (partner 0.02 µM) showed a relative viability of 0.117.
Still for that read-out and setting: under `COCC1(CO)C(=O)C2CCN1CC2` (stereo not drawn) [PRIMA-1MET] + Nc1ncn([C@H]2C[C@H](O)[C@@H](CO)O2)c(=O)n1 [Decitabine] (partner 2 µM) stands 0.174; under `COCC1(CO)C(=O)C2CCN1CC2` (stereo not drawn) [PRIMA-1MET] + O=C(c1cc(Cc2n[nH]c(=O)c3ccccc23)ccc1F)N1CCN(C(=O)C2CC2)CC1 [Olaparib] (partner 8 µM), 0.241.

The subject of another test is LC-2-ad. Described as above. Particulars: first compound 0.2 µM. The essentials: as §1
Turning to `COCC1(CO)C(=O)C2CCN1CC2` (stereo not drawn) [PRIMA-1MET] + N=C(N)NC(=N)NCCc1ccccc1 [Phenformin] (partner 250 µM), the relative viability came to 0.548.
The same measure, in the same setting: the same measure for `COCC1(CO)C(=O)C2CCN1CC2` (stereo not drawn) [PRIMA-1MET] + Nc1nc2[nH]cc(CCc3ccc(C(=O)N[C@@H](CCC(=O)O)C(=O)O)cc3)c2c(=O)[nH]1 [Pemetrexed] (partner 0.2 µM): 0.26.
Compound `COCC1(CO)C(=O)C2CCN1CC2` (stereo not drawn) [PRIMA-1MET] + CC(=O)Nc1cccc(-n2c(=O)n(C3CC3)c(=O)c3c(Nc4ccc(I)cc4F)n(C)c(=O)c(C)c32)c1 [Trametinib] (partner 0.02 µM) registered a relative viability of 0.82.
`COCC1(CO)C(=O)C2CCN1CC2` (stereo not drawn) [PRIMA-1MET] + Nc1ncn([C@H]2C[C@H](O)[C@@H](CO)O2)c(=O)n1 [Decitabine] (partner 2 µM) displayed a relative viability of 0.902.
On the same count and under the same terms, the same measure for `COCC1(CO)C(=O)C2CCN1CC2` (stereo not drawn) [PRIMA-1MET] + O=C(c1cc(Cc2n[nH]c(=O)c3ccccc23)ccc1F)N1CCN(C(=O)C2CC2)CC1 [Olaparib] (partner 8 µM): 0.751.

Still in this test, the particulars now being: first compound 0.6325 µM.
In the case of `COCC1(CO)C(=O)C2CCN1CC2` (stereo not drawn) [PRIMA-1MET] + Nc1nc2[nH]cc(CCc3ccc(C(=O)N[C@@H](CCC(=O)O)C(=O)O)cc3)c2c(=O)[nH]1 [Pemetrexed] (partner 0.2 µM), the relative viability is 0.301.
On the same count and under the same terms, the same measure for `COCC1(CO)C(=O)C2CCN1CC2` (stereo not drawn) [PRIMA-1MET] + CC(=O)Nc1cccc(-n2c(=O)n(C3CC3)c(=O)c3c(Nc4ccc(I)cc4F)n(C)c(=O)c(C)c32)c1 [Trametinib] (partner 0.02 µM): 0.914; for `COCC1(CO)C(=O)C2CCN1CC2` (stereo not drawn) [PRIMA-1MET] + Nc1ncn([C@H]2C[C@H](O)[C@@H](CO)O2)c(=O)n1 [Decitabine] (partner 2 µM): 0.607; for `COCC1(CO)C(=O)C2CCN1CC2` (stereo not drawn) [PRIMA-1MET] + O=C(c1cc(Cc2n[nH]c(=O)c3ccccc23)ccc1F)N1CCN(C(=O)C2CC2)CC1 [Olaparib] (partner 8 µM): 0.673.

Staying with this test, now noted: first compound 2 µM.
`COCC1(CO)C(=O)C2CCN1CC2` (stereo not drawn) [PRIMA-1MET] + N=C(N)NC(=N)NCCc1ccccc1 [Phenformin] (partner 250 µM) showed a relative viability of 0.49.
In the case of `COCC1(CO)C(=O)C2CCN1CC2` (stereo not drawn) [PRIMA-1MET] + Nc1nc2[nH]cc(CCc3ccc(C(=O)N[C@@H](CCC(=O)O)C(=O)O)cc3)c2c(=O)[nH]1 [Pemetrexed] (partner 0.2 µM), the relative viability was found to be 0.268.
Same read-out and setting: the same measure for `COCC1(CO)C(=O)C2CCN1CC2` (stereo not drawn) [PRIMA-1MET] + CC(=O)Nc1cccc(-n2c(=O)n(C3CC3)c(=O)c3c(Nc4ccc(I)cc4F)n(C)c(=O)c(C)c32)c1 [Trametinib] (partner 0.02 µM): 0.924; for `COCC1(CO)C(=O)C2CCN1CC2` (stereo not drawn) [PRIMA-1MET] + Nc1ncn([C@H]2C[C@H](O)[C@@H](CO)O2)c(=O)n1 [Decitabine] (partner 2 µM): 0.773; for `COCC1(CO)C(=O)C2CCN1CC2` (stereo not drawn) [PRIMA-1MET] + O=C(c1cc(Cc2n[nH]c(=O)c3ccccc23)ccc1F)N1CCN(C(=O)C2CC2)CC1 [Olaparib] (partner 8 µM): 0.659.

The same test, now with this note: first compound 6.325 µM.
Take `COCC1(CO)C(=O)C2CCN1CC2` (stereo not drawn) [PRIMA-1MET] + N=C(N)NC(=N)NCCc1ccccc1 [Phenformin] (partner 250 µM): the relative viability came to 0.568.
In the case of `COCC1(CO)C(=O)C2CCN1CC2` (stereo not drawn) [PRIMA-1MET] + Nc1nc2[nH]cc(CCc3ccc(C(=O)N[C@@H](CCC(=O)O)C(=O)O)cc3)c2c(=O)[nH]1 [Pemetrexed] (partner 0.2 µM), the relative viability was found to be 0.273.
In turn, `COCC1(CO)C(=O)C2CCN1CC2` (stereo not drawn) [PRIMA-1MET] + CC(=O)Nc1cccc(-n2c(=O)n(C3CC3)c(=O)c3c(Nc4ccc(I)cc4F)n(C)c(=O)c(C)c32)c1 [Trametinib] (partner 0.02 µM) had a relative viability of 0.878.
On the same count and under the same terms, under `COCC1(CO)C(=O)C2CCN1CC2` (stereo not drawn) [PRIMA-1MET] + Nc1ncn([C@H]2C[C@H](O)[C@@H](CO)O2)c(=O)n1 [Decitabine] (partner 2 µM) stands 0.776; under `COCC1(CO)C(=O)C2CCN1CC2` (stereo not drawn) [PRIMA-1MET] + O=C(c1cc(Cc2n[nH]c(=O)c3ccccc23)ccc1F)N1CCN(C(=O)C2CC2)CC1 [Olaparib] (partner 8 µM), 0.68.

Staying with this test, now noted: first compound 20 µM.
`COCC1(CO)C(=O)C2CCN1CC2` (stereo not drawn) [PRIMA-1MET] + N=C(N)NC(=N)NCCc1ccccc1 [Phenformin] (partner 250 µM): the relative viability worked out at 0.36.
